Test results reported in patent US8802597B2, “Herbicidal pyrimidines” (E I du Pont de Nemours and Company, priority 2003, dated 2014).

Columns and labels:
Type in all cases: in vivo
[1] = tested on: barnyardgrass (Echinochloa crus-galli); experiment: Test C flooded paddy test; conditions: Flood
Procedure: (§1) At the same time, plants selected from these crop and weed species and also winter barley (Hordeum vulgare), blackgrass (Alopecurus myosuroides), canarygrass (Phalaris minor), chickweed (Stellaria media), downy brome (Bromus tectorum), green foxtail (Setaria viridis), Italian ryegrass (Lolium multiflorum), wheat (Triticum aestivum), wild oat (Avena fatua) and windgrass (Apera spica-venti) were treated with postemergence applications of some of the test chemicals formulated in the same manner. Plants ranged in height from 2 to 18 cm (1- to 4-leaf stage) for postemergence treatments. Plant species in the flooded paddy test consisted of rice (Oryza sativa), umbrella sedge (Cyperus difformis), duck salad (Heteranthera limosa) and barnyardgrass (Echinochloa crus-galli) grown to the 2-leaf stage for testing. Treated plants and controls were maintained in a greenhouse for 12 to 14 days, after which time all species were compared to controls and visually evaluated. Plant response ratings, summarized in Table C, are based on a scale of 0 to 100 where 0 is no effect and 100 is complete control. A dash (-) response means no test result.

[2] = tested on: umbrella sedge (Cyperus difformis); experiment: Test C flooded paddy test; conditions: Flood, scale 0 to 100
Procedure: as §1

rice (Oryza sativa) [3] = experiment: Test C flooded paddy test; conditions: Flood, scale 0 to 100
Procedure: as §1

[4] = tested on: duck salad (Heteranthera limosa); experiment: Test C flooded paddy test; conditions: Flood, scale 0 to 100
Procedure: as §1

wild oat (Avena fatua) = experiment: Test B postemergence
Summary of the method: (§2)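 Pre: compound (non-phytotoxic solvent + surfactant) applied to freshly planted seeds. Post: same formulation sprayed on 2–18 cm plants, 1- to 4-leaf. Readout: visual control rating 0–100 vs controls, 13–15 d, greenhouse.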

[5] = tested on: blackgrass (Alopecurus myosuroides); experiment: Test B postemergence
Summary of the method: as §2

[6] = tested on: barnyardgrass (Echinochloa crus-galli); experiment: Test B flooded paddy test; conditions: Flood, 1000 g ai/ha; scale 0 (no effect) to 100 (complete control)
Summary of the method: (§3)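 Visual injury scoring (0 = no effect, 100 = complete control) versus controls made 13 to 15 days after treatment in the greenhouse. Test species were grown in flooded paddy to the 2-leaf stage: rice, barnyardgrass, umbrella sedge, duck salad.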

[7] = tested on: umbrella sedge (Cyperus difformis); experiment: Test B flooded paddy test; conditions: Flood, 1000 g ai/ha; scale 0 to 100
Summary of the method: as §3

rice (Oryza sativa) [8] = experiment: Test B flooded paddy test; conditions: Flood, 1000 g ai/ha; scale 0 to 100
Summary of the method: as §3

[9] = tested on: duck salad (Heteranthera limosa); experiment: Test B flooded paddy test; conditions: Flood, 1000 g ai/ha; scale 0 to 100
Summary of the method: as §3

[10] = tested on: wheat (Triticum aestivum); experiment: Test B pre/postemergence
Summary of the method: as §2

[11] = tested on: barnyardgrass (Echinochloa crus-galli); experiment: Test B pre/postemergence
Summary of the method: as §2

[12] = tested on: crabgrass (Digitaria sanguinalis); experiment: Test B pre/postemergence
Summary of the method: as §2

[13] = tested on: giant foxtail (Setaria faberii); experiment: Test B pre/postemergence
Summary of the method: as §2

[14] = tested on: lambsquarters (Chenopodium album); experiment: Test B pre/postemergence
Summary of the method: as §2

[15] = tested on: pigweed (Amaranthus retroflexus); experiment: Test B pre/postemergence
Summary of the method: as §2

[16] = tested on: Surinam grass (Brachiaria decumbens); experiment: Test B pre/postemergence
Summary of the method: as §2

[17] = tested on: velvetleaf (Abutilon theophrasti); experiment: Test B pre/postemergence
Summary of the method: as §2

[18] = tested on: cocklebur (Xanthium strumarium); experiment: Test B pre/postemergence
Summary of the method: as §2

corn (Zea mays) = experiment: Test B pre/postemergence
Summary of the method: as §2

[19] = tested on: morningglory (Ipomoea coccinea); experiment: Test B pre/postemergence
Summary of the method: as §2

[20] = 125 g ai/ha, scale 0 to 100 (0 no effect, 100 complete control)
[21] = Postemergence, 125 g ai/ha, scale 0 to 100 (0 no effect, 100 complete control)
[22] = Postemergence, 500 g ai/ha, scale 0 to 100
[23] = Preemergence, 125 g ai/ha, scale 0 to 100 (0 no effect, 100 complete control)
[24] = Preemergence, 500 g ai/ha, scale 0 to 100 (0 no effect, 100 complete control)

## CC(C)OC(=O)c1nc(C2CC2)nc(N)c1Br [Compound 14]
[1]; 62 g ai/ha, scale 0 to 100
  Plant response rating, Barnyardgrass: 0
[1]; 125 g ai/ha, scale 0 to 100
  Plant response rating, Barnyardgrass: 0
[1]; 250 g ai/ha, scale 0 to 100
  Plant response rating, Barnyardgrass: 0
[1]; 500 g ai/ha, scale 0 to 100 (0 no effect, 100 complete control)
  Plant response rating, Barnyardgrass: 45
[2]; 62 g ai/ha
  Plant response rating, Sedge, Umbrella: 0
[2]; 125 g ai/ha
  Plant response rating, Sedge, Umbrella: 0
[2]; 250 g ai/ha
  Plant response rating, Sedge, Umbrella: 0
[2]; 500 g ai/ha
  Plant response rating, Sedge, Umbrella: 30
Rice (Oryza sativa) [3]; 62 g ai/ha
  Plant response rating, Rice: 0
Rice (Oryza sativa) [3]; 125 g ai/ha
  Plant response rating, Rice: 0
Rice (Oryza sativa) [3]; 250 g ai/ha
  Plant response rating, Rice: 0
Rice (Oryza sativa) [3]; 500 g ai/ha
  Plant response rating, Rice: 0
[4]; 62 g ai/ha
  Plant response rating, Ducksalad: 0
[4]; 125 g ai/ha
  Plant response rating, Ducksalad: 40
[4]; 250 g ai/ha
  Plant response rating, Ducksalad: 45
[4]; 500 g ai/ha
  Plant response rating, Ducksalad: 55
Wild oat (Avena fatua); [20]
  Oat, Wild plant response rating: 20
Wild oat (Avena fatua); 500 g ai/ha, scale 0 to 100
  Plant response rating, Oat, Wild: 70
[5]; [20]
  Blackgrass plant response rating: 30
[5]; 500 g ai/ha, scale 0 to 100
  Plant response rating, Blackgrass: 60
[6]
  Plant response rating, Barnyardgrass: 80
[7]
  Plant response rating, Sedge, Umbrella: 50
Rice (Oryza sativa) [8]
  Plant response rating, Rice: 20
[9]
  Plant response rating, Ducksalad: 80
[10]; [21]
  Wheat plant response rating: 20
[10]; [22]
  Plant response rating, Wheat: 50
[10]; [23]
  Plant response rating, Wheat: 40
[10]; [24]
  Wheat plant response rating: 50
[11]; [21]
  Barnyardgrass plant response rating: 30
[11]; [22]
  Plant response rating, Barnyardgrass: 90
[11]; [23]
  Plant response rating, Barnyardgrass: 10
[11]; [24]
  Barnyardgrass plant response rating: 80
[12]; [21]
  Crabgrass plant response rating: 10
[12]; [22]
  Plant response rating, Crabgrass: 30
[12]; [23]
  Plant response rating, Crabgrass: 10
[12]; [24]
  Crabgrass plant response rating: 80
[13]; [21]
  Foxtail, Giant plant response rating: 20
[13]; [22]
  Plant response rating, Foxtail, Giant: 50
[13]; [23]
  Plant response rating, Foxtail, Giant: 30
[13]; [24]
  Foxtail, Giant plant response rating: 80
[14]; [21]
  Lambsquarters plant response rating: 100
[14]; [22]
  Plant response rating, Lambsquarters: 100
[14]; [23]
  Plant response rating, Lambsquarters: 90
[14]; [24]
  Lambsquarters plant response rating: 100
[15]; [21]
  Pigweed plant response rating: 80
[15]; [22]
  Plant response rating, Pigweed: 90
[15]; [23]
  Plant response rating, Pigweed: 80
[15]; [24]
  Pigweed plant response rating: 90
[16]; [21]
  Surinam Grass plant response rating: 10
[16]; [22]
  Plant response rating, Surinam Grass: 50
[16]; [23]
  Plant response rating, Surinam Grass: 40
[16]; [24]
  Surinam Grass plant response rating: 80
[17]; [21]
  Velvetleaf plant response rating: 50
[17]; [22]
  Plant response rating, Velvetleaf: 70
[17]; [23]
  Plant response rating, Velvetleaf: 60
[17]; [24]
  Velvetleaf plant response rating: 80
[18]; [21]
  Cocklebur plant response rating: 50
[18]; [22]
  Plant response rating, Cocklebur: 70
[18]; [23]
  Plant response rating, Cocklebur: 60
[18]; [24]
  Cocklebur plant response rating: 80
Corn (Zea mays); [21]
  Corn plant response rating: 30
Corn (Zea mays); [22]
  Plant response rating, Corn: 70
Corn (Zea mays); [23]
  Plant response rating, Corn: 0
Corn (Zea mays); [24]
  Corn plant response rating: 70
[19]; [21]
  Morningglory plant response rating: 100
[19]; [22]
  Plant response rating, Morningglory: 100
[19]; [23]
  Plant response rating, Morningglory: 70
[19]; [24]
  Morningglory plant response rating: 100
